Laboratory results as given in patent US6596863B2, “Medical composition containing nitroetheneamine Derivative or salt there of as active constituent” (Ishihara Sangyo Kaisha, Ltd., priority 1998, dated 2003).
Like-named read-outs stand apart in the source and are kept apart here.

How the values were obtained:
[1] = target: T1, human MMP-3 (Homo sapiens, UniProt P08254); assay: Enzyme inhibition activity against MMP-3 (stromelysin-1), fluorescent peptide substrate NFF-3; type: biochemical; conditions: human MMP-3, substrate NFF-3, 37° C. for 2 hours
T1 construct: purchased Kabushiki Kaisha Yagai Chuo Kenkyusho YU-26003
Experimental: The inhibition activity against human MMP-3 was measured using a fluorescent peptide substrate MOCAc-Arg-Pro-Lys-Pro-Val-Glu-Nva-Trp—Arg-Lys(Dnp)-NH2[NFF-3, manufactured by Peptide Institute, Inc. (No. 3168-v)] with reference to the method disclosed in a literature (Knight C. G. et al, FEBS Letters, Vol. 296, 263-266, 1992, Nagase H. et al, Journal of Biological Chemistry, Vol. 269, 20952-20957, 1994). Namely, into each well of a Fluoro Nunc plate (96C) white (No. 437842, manufactured by Nunc Co.), 180 μl of a MMP-3 solution (0.0125 unit/ml; No. YU-26003, manufactured by Kabushiki Kaisha Yagai Chuo Kenkyusho, purity: at least 99%), 10 μl of a test materials (the compound of the present invention) dissolved in DMSO and 10 μl of a peptide substrate […] (final concentration: 10 μM) were added and maintained at 37° C. for 2 hours in a dark place. Dilution of the enzyme was carried out by using 50 mM of Tris-HCl (pH 7.5) comprising 0.1M of NaCl, 10 mM of CaCl2, 0.05% Brij 35 and 0.02% of NaN3.
For the MMP-3 enzymatic activity, the amount of the decomposition product after the reaction was quantitatively analyzed as the change in the relative fluorescence intensity at a fluorescence wavelength of 400 nm with an excitation wavelength of 326 nm (using a variable fluorescence plate reader (variable wavelength type) Spectron FL-2575, manufactured by Towa Kagaku K. K.), and the inhibition activity of the test materials against the enzymatic activity was calculated by comparing the relative fluorescence intensities of the inhibitor added group and the non-added group after completion of the reaction.

[2] = target: T2, human MMP-9 (gelatinase B) (Homo sapiens, UniProt P14780); assay: Inhibition activity against human MMP-9 (gelatinase B), fluorescent peptide substrate; type: biochemical; conditions: compounds of the formula (I)
T2 construct: endogenous in cells; host or cells: HT1080 human fibrosarcoma cells (ATCC CCL-121), PMA-stimulated; enzyme purified from the culture supernatant
Method in brief: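 MMP-9 purified from PMA-stimulated (10 ng/ml) HT1080 supernatant, or commercial enzyme (0.0125-0.025 unit/ml or 0.2 μg/ml final), incubated with compound and 10 μM final Mca-Pro-Leu-Gly-Leu-Dpa-Ala-Arg-NH2 fluorescent substrate at 37 °C for 3 h in the dark. Precursor enzyme activated with APMA.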

[3] = 1st measurement, read-out: MMP-9 inhibition activities IC50, 1st
[4] = 2nd measurement, read-out: MMP-9 inhibition activities IC50, 2nd
[5] = average of 1st and 2nd (or single measurement), read-out: MMP-9 inhibition activities IC50, Average

T1 sequence (P08254 100-477): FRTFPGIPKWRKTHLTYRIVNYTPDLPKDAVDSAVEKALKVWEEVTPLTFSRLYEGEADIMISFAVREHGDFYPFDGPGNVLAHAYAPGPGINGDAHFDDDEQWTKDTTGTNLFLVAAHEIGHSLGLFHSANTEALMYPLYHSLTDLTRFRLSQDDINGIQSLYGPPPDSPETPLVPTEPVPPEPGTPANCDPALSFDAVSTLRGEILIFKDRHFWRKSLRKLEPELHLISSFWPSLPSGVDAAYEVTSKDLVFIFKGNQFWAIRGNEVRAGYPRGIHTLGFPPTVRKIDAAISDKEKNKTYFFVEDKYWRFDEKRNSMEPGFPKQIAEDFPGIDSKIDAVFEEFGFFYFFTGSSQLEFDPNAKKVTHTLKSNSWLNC
T2 sequence (P14780 107-707 limits assumed): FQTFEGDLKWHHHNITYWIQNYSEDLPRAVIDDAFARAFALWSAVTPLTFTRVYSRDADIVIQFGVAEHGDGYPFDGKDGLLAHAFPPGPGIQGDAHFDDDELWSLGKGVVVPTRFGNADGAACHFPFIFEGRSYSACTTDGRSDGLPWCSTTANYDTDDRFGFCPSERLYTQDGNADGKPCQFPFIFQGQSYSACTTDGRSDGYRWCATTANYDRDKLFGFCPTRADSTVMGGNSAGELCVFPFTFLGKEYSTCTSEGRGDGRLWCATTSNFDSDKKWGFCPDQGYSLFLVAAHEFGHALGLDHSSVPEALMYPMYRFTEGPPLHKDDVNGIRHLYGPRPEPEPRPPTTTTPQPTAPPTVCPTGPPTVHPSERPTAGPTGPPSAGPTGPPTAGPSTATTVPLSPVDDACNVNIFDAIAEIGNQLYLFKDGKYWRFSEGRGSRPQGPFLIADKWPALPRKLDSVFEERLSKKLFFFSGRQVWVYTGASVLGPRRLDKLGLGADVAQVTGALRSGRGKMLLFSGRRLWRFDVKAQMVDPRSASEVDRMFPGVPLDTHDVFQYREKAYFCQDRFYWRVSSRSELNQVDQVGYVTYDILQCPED

SMILES	IC50 [1]	IC50 [2, 3]	IC50 [2, 4]	IC50 [2, 5]
CS(=O)(=O)NC(=C[N+](=O)[O-])NNc1cc(C(F)(F)F)cc(Cl)n1 [Compound No. 157, N-(1-(6-chloro-4-trifluoromethyl-2-pyridyl)hydrazino-2-nitroethenyl)methanesulfonamide]	24.2 µM	7.4 µM	5.5 µM	6.5 µM
CCOCCOc1cc(C(F)(F)F)cc(NNC(=C[N+](=O)[O-])NC)n1 [Compound No. 107]	22.3 µM	8 µM	7.4 µM	7.7 µM
CCOCCOc1cc(C(F)(F)F)cc(NNC(=C[N+](=O)[O-])NS(C)(=O)=O)n1 [Compound No. 164, N-(1-(6-(2-ethoxyethoxy)-4-trifluoromethyl-2-pyridyl)hydrazino-2-nitroethenyl)methanesulfonamide]	17.8 µM	5.4 µM	5.9 µM	5.7 µM
